Data published in US8815849B2, “Hetero-bicyclic derivatives as HCV inhibitors” (Janssen R&D Ireland, priority 2010, dated 2014).

The compounds below were run on HCV replicon (Huh-Luc cells, NS3-NS5B regions of HCV type 1b) (assay: HCV replicon assay (Huh-7 luc/neo, luciferase readout)). Conditions: Hepatitis C virus, Huh-7, 72 h, Huh-Luc replicon cells, three days incubation, luciferase activity; average if tested more than once; read-out: HCV-REP-HUH7LUC_EC50.
Type: cell-based
From the text: The in vitro antiviral activity against HCV of the compounds of formula I can be tested in a cellular HCV replicon system based on Lohmann et al. (1999) Science 285:110-113, with the further modifications described by Krieger et al. (2001) Journal of Virology 75: 4614-4624 (incorporated herein by reference), which is further exemplified in the examples section. This model, while not a complete infection model for HCV, is widely accepted as the most robust and efficient model of autonomous HCV RNA replication currently available. It will be appreciated that it is important to distinguish between compounds that specifically interfere with HCV functions from those that exert cytotoxic or cytostatic effects in the HCV replicon model, and as a consequence cause a decrease in HCV RNA or linked reporter enzyme concentration. Assays are known in the field for the evaluation of cellular cytotoxicity based for example on the activity of mitochondrial enzymes using fluorogenic redox dyes such as resazurin. Furthermore, cellular counter screens exist for the evaluation of non-selective inhibition of linked reporter gene activity, such as firefly luciferase. Appropriate cell types can be equipped by stable transfection with a luciferase reporter gene whose expression is dependent on a constitutively active gene promoter, and such cells can be used as a counter-screen to eliminate non-selective inhibitors.
The compounds of formula (I) were examined for inhibitory activity in the HCV replicon. This cellular assay is based on a bicistronic expression construct, as described by Lohmann et al. (1999) Science vol. 285 pp. 110-113 with modifications described by Krieger et al. (2001) Journal of Virology 75: 4614-4624, in a multi-target screening strategy.
The assay utilized the stably transfected cell line Huh-7 luc/neo (hereafter referred to as Huh-Luc). This cell line harbors an RNA encoding a bicistronic expression construct comprising the wild type NS3-NS5B regions of HCV type 1b translated from an
Internal Ribosome Entry Site (IRES) from encephalomyocarditis virus (EMCV), preceded by a reporter portion (FfL-luciferase), and a selectable marker portion (neo^R, neomycine phosphotransferase). The construct is flanked by 5′ and 3′ NTRs (non-translated regions) from HCV type 1b. Continued culture of the replicon cells in the presence of G418 (neo^R) is dependent on the replication of the HCV RNA. The stably transfected replicon cells that express HCV RNA, which replicates autonomously and to high levels, encoding inter alia luciferase, were used for screening the antiviral compounds.
The replicon cells were plated in 384 well plates in the presence of the test and control compounds which were added in various concentrations. Following an incubation of three days, HCV replication was measured by assaying luciferase activity (using standard luciferase assay substrates and reagents and a Perkin Elmer ViewLux™ ultraHTS microplate imager). Replicon cells in the control cultures have high luciferase expression in the absence of any inhibitor. The inhibitory activity of the compound on luciferase activity was monitored on the Huh-Luc cells, enabling a dose-response curve for each test compound. EC50 values were then calculated, which represent the amount of compound required to decrease the level of detected luciferase activity by 50%, or more specifically, to reduce the ability of the genetically linked HCV replicon RNA to replicate.
Where a compound of formula (I) was tested more than once in the replicon assay, the average of all test results is given in this Table 1.
For COC(=O)N[C@H](C(=O)N1CCC[C@H]1C1=Nc2cc(-c3ccc4cc(-c5cnc([C@@H]6CCCN6C(=O)[C@@H](NC(=O)OC)C(C)C)[nH]5)ccc4c3)ccc2C(C)(C)N1)C(C)C [Compound 61], the EC50 was 0.017 nM.
Compound COC(=O)N[C@H](C(=O)N1CCC[C@H]1c1ncc(-c2ccc3cc(-c4ccc5c(=O)[nH]c([C@@H]6CCCN6C(=O)[C@H](NC(=O)OC6CCC6)c6ccccc6)nc5c4)ccc3c2)[nH]1)C(C)C [Compound 44-4] has an EC50 of 9.8 nM.
Compound CC[C@H](NC(=O)OC)C(=O)N1CCCC1c1cc(=O)c2ccc(-c3ccc4cc(-c5cnc([C@@H]6CCCN6C(=O)[C@@H](NC(=O)OC)C(C)C)[nH]5)ccc4c3)cc2[nH]1 (stereo partly shown) [Compound 13-A2] has an EC50 of 0.079 nM.
Compound COC(=O)N[C@H](C(=O)N1CCCC1c1cc(=O)c2ncc(-c3ccc4cc(-c5cnc([C@@H]6CCCN6C(=O)[C@@H](NC(=O)OC)C(C)C)[nH]5)ccc4c3)cc2[nH]1)C(C)C (stereo partly shown) [Compound 97] has an EC50 of 0.24 nM.
For COC(=O)N[C@H](C(=O)N1CCC[C@H]1c1ncc(-c2ccc3cc(-c4ccc5c(=O)cc(C6CCCN6C(=O)[C@@H](NC(=O)OC)[C@@H](C)OC)[nH]c5c4)ccc3c2)[nH]1)C(C)C (stereo partly shown) [Compound 13-A1], the EC50 was 0.1 nM.
COC(=O)N[C@H](C(=O)N1CCC[C@H]1c1ncc(-c2ccc3cc(-c4ccc5c(=O)[nH]c([C@@H]6CCCN6C(=O)[C@H](NC(=O)OC6CCCC6)c6ccccc6)nc5c4)ccc3c2)[nH]1)C(C)C [Compound 44-3] showed an EC50 of 1 nM.
In the case of COC[C@H](NC(=O)OC)C(=O)N1CCCC1c1cc(=O)c2ccc(-c3ccc4cc(-c5cnc([C@@H]6CCCN6C(=O)[C@@H](NC(=O)OC)C(C)C)[nH]5)ccc4c3)cc2[nH]1 (stereo partly shown) [Compound 13-A8], the EC50 is reported as 0.18 nM.
In the case of COC(=O)N[C@H](C(=O)N1CCCC1c1cc2ccc(-c3ccc4cc(-c5cnc([C@@H]6CCCN6C(=O)[C@@H](NC(=O)OC)C(C)C)[nH]5)ccc4c3)cc2c(=O)[nH]1)C(C)C (stereo partly shown) [Compound 20], the EC50 is reported as 0.79 nM.
Compound COC(=O)N[C@H](C(=O)N1CCC[C@H]1c1ncc(-c2ccc3cc(-c4ccc5c(=O)cc(C6C[C@@H]7CCCC[C@@H]7N6C(=O)[C@@H](NC(=O)OC)C(C)C)[nH]c5c4)ccc3c2)[nH]1)C(C)C (stereo partly shown) [Compound 119a] has an EC50 of 0.033 nM.
CC[C@@H](C)[C@H](NC(=O)OC)C(=O)N1CCCC1c1cc(=O)c2ccc(-c3ccc4cc(-c5cnc([C@@H]6CCCN6C(=O)[C@@H](NC(=O)OC)C(C)C)[nH]5)ccc4c3)cc2[nH]1 (stereo partly shown) [Compound 13-A5] was tested, and the EC50 was 0.062 nM.
Work on COC(=O)N[C@H](C(=O)N1CCCC1c1cc(=O)c2cc(-c3ccc4cc(-c5cnc([C@@H]6CCCN6C(=O)[C@@H](NC(=O)OC)[C@@H](C)OC)[nH]5)ccc4c3)ccc2[nH]1)[C@@H](C)OC (stereo partly shown) [Compound 23] yielded an EC50 of 0.47 nM.
COC[C@H](NC(=O)OC(C)(C)C)C(=O)N1CCCC1c1cc(=O)c2ccc(-c3ccc4cc(-c5cnc([C@@H]6CCCN6C(=O)[C@@H](NC(=O)OC)C(C)C)[nH]5)ccc4c3)cc2[nH]1 (stereo partly shown) [Compound 13-A7] was tested, and the EC50 was 0.053 nM.
COC(=O)NC(C(=O)N1CCCC1c1cc(=O)c2ccc(-c3ccc4cc(-c5cnc([C@@H]6CCCN6C(=O)[C@@H](NC(=O)OC)C(C)C)[nH]5)ccc4c3)cc2[nH]1)C1CCOCC1 (stereo partly shown) [Compound 13-A4] showed an EC50 of 1.2 nM.
COCC[C@H](NC(=O)OC)C(=O)N1CCCC1c1cc(=O)c2ccc(-c3ccc4cc(-c5cnc([C@@H]6CCCN6C(=O)[C@@H](NC(=O)OC)C(C)C)[nH]5)ccc4c3)cc2[nH]1 (stereo partly shown) [Compound 13-A6] showed an EC50 of 0.5 nM.
Work on COC(=O)N[C@H](C(=O)N1CCCC1c1[nH]c2cc(-c3ccc4cc(-c5cnc([C@@H]6CCCN6C(=O)[C@@H](NC(=O)OC)C(C)C)[nH]5)ccc4c3)ccc2c(=O)c1C)C(C)C (stereo partly shown) [Compound 102b] yielded an EC50 of 20.6 nM.

Same assay, conditions: Hepatitis C virus, Huh-7, 72 h, read-out: HCV-REP-HUH7LUC_EC50 (nM), Huh-Luc replicon cells, three days incubation, luciferase activity; average if tested more than once
Compound COC(=O)N[C@H](C(=O)N1CCCC1c1cc2ccc(-c3ccc4cc(-c5cnc([C@@H]6CCCN6C(=O)[C@@H](NC(=O)OC)[C@@H](C)OC)[nH]5)ccc4c3)cc2c(=O)[nH]1)[C@@H](C)OC (stereo partly shown) [Compound 20-A] has an EC50 of 0.2 nM.

Same assay, conditions: Huh-Luc replicon cells, three days incubation, luciferase activity; average if tested more than once; read-out: HCV-REP-HUH7LUC_EC50
COC(=O)N[C@H](C(=O)N1CCCC1c1cc(=O)c2ccc(-c3ccc4cc(-c5cnc([C@@H]6CCCN6C(=O)[C@@H](NC(=O)OC)C(C)C)[nH]5)ccc4c3)cc2[nH]1)C(C)C (stereo partly shown) [Compound 13a] showed an EC50 of 0.91 nM.
COC(=O)N[C@H](C(=O)N1CCCC1c1cc(=O)c2cc(-c3ccc4cc(-c5cnc([C@@H]6CCCN6C(=O)[C@@H](NC(=O)OC)[C@@H](C)OC)[nH]5)ccc4c3)ccc2[nH]1)[C@@H](C)OC (stereo partly shown) [Compound 23b] gave an EC50 of 0.34 nM.
For COC(=O)N[C@H](C(=O)N1CCCC1c1cc(=O)c2cc(-c3ccc4cc(-c5cnc([C@@H]6CCCN6C(=O)[C@@H](NC(=O)OC)C(C)C)[nH]5)ccc4c3)ccc2[nH]1)C(C)C (single isomer, unassigned) [Compound 22a], the EC50 was 3.4 nM.
With COC(=O)N[C@H](C(=O)N1CCCC1c1cc(=O)c2cc(-c3ccc4cc(-c5cnc([C@@H]6CCCN6C(=O)[C@@H](NC(=O)OC)C(C)C)[nH]5)ccc4c3)ccc2[nH]1)C(C)C (single isomer, unassigned) [Compound 22b] the EC50 was 0.052 nM.
Work on COC(=O)N[C@H](C(=O)N1CCCC1c1[nH]c2cc(-c3ccc4cc(-c5cnc([C@@H]6CCCN6C(=O)[C@@H](NC(=O)OC)C(C)C)[nH]5)ccc4c3)ccc2c(=O)c1Cl)C(C)C (single isomer, unassigned) [Compound 106b] yielded an EC50 of 20.6 nM.
COC(=O)N[C@H](C(=O)N1CCCC1c1[nH]c2cc(-c3ccc4cc(-c5cnc([C@@H]6CCCN6C(=O)[C@@H](NC(=O)OC)C(C)C)[nH]5)ccc4c3)ccc2c(=O)c1Cl)C(C)C (single isomer, unassigned) [Compound 106a] was tested, and the EC50 was 0.12 nM.
CC[C@H](C)[C@H](NC(=O)OC)C(=O)N1CCCC1c1cc(=O)c2cc(-c3ccc4cc(-c5cnc([C@@H]6CCCN6C(=O)[C@@H](NC(=O)OC)[C@@H](C)CC)[nH]5)ccc4c3)ccc2[nH]1 (stereo partly shown) [Compound 24] showed an EC50 of 0.048 nM.
For COC(=O)N[C@H](C(=O)N1CCCC1c1cc(=O)c2ccc(-c3ccc4cc(-c5cnc([C@@H]6CCCN6C(=O)[C@@H](NC(=O)OC)C(C)C)[nH]5)ccc4c3)cc2[nH]1)C(C)C (stereo partly shown) [Compound 13], the EC50 was 0.028 nM.
With COC(=O)N[C@H](C(=O)N1CCCC1c1cc(=O)c2cc(-c3ccc4cc(-c5cnc([C@@H]6CCCN6C(=O)[C@@H](NC(=O)OC)C(C)C)[nH]5)ccc4c3)ccc2[nH]1)C(C)C (stereo partly shown) [Compound 22] the EC50 was 0.075 nM.
In the case of CC[C@H](C)[C@H](NC(=O)OC)C(=O)N1CCCC1c1cc(=O)c2cc(-c3ccc4cc(-c5cnc([C@@H]6CCCN6C(=O)[C@@H](NC(=O)OC)[C@@H](C)CC)[nH]5)ccc4c3)ccc2[nH]1 (single isomer, unassigned) [Compound 24a], the EC50 is reported as 9.6 nM.

The compounds below were run on LLC-MDR1 monolayers (assay: not given). Conditions: pig, LLC-PK1, 120 min.
Type: in vitro ADME
Experimental: Assay Description for the Measurement of Transepithelial Transport of Test Compounds Through LLC-MDR1 Monolayers
The integrity of the cellular monolayer was assessed in each incubation well through the inclusion of the fluorescent, low permeability marker compound, Fluorescein.
In detail, LLC-MDR1 cells (LLC-PK1 cells stably transduced with MDR1 in a trans-well system) were seeded on 24-well cell culture inserts (Millicell®-PCF, 0.4 μm, 13 mm Ø, 0.7 cm^2) at 400 000 cells/cm^2. Cell culture medium consists of Medium 199 supplemented with 10% Fetal Bovine Serum (FBS) and 100 U/mL Penicillin/streptomycin and was replaced the day after seeding and the day before the experiment. The transport experiment was performed 5 days after seeding. On the day of the experiment, solutions of the test compounds were applied to the apical side of the monolayers to assess transport in the AtoB direction,. The medium used in the assay was (OPTI-MEM (1×) (GIBCO) with 1 w/v % Bovine Serum Albumin. Inserts were incubated at 37° C. in a humidified incubator containing 5% CO2. Samples from the acceptor and donor compartments were collected after an incubation time of 120 min, to assess the permeability and to allow estimation of the test compound recovery during the experiment, respectively. Transport experiments were performed in triplicate. Absolute test compound concentrations were measured using LC-MS/MS and quantified via a calibration curve.
With COC(=O)N[C@H](C(=O)N1CCC[C@H]1C1=Nc2cc(-c3ccc4cc(-c5cnc([C@@H]6CCCN6C(=O)[C@@H](NC(=O)OC)C(C)C)[nH]5)ccc4c3)ccc2C(C)(C)N1)C(C)C [Compound 61] the “A->B permeability (Papp × 10^−6 cm/sec) in the presence the P-gp inhibitor GF120918” value was 4.8 10^−6 cm/sec.
With CC[C@H](C)[C@H](NC(=O)OC)C(=O)N1CCCC1c1cc(=O)c2ccc(-c3ccc4cc(-c5cnc([C@@H]6CCCN6C(=O)[C@@H](NC(=O)OC)C(C)C)[nH]5)ccc4c3)cc2[nH]1 (stereo partly shown) [Compound 13-A3] the “A->B permeability (Papp × 10^−6 cm/sec) in the presence the P-gp inhibitor GF120918” value was 0.9 10^−6 cm/sec.
